# Source: patent US6706740B2, “Fungicidal heterocyclic aromatic amides and their compositions, methods of use and preparation” (Dow AgroSciences LLC, priority 1999, dated 2004)
# System: Magnaporthe grisea (Pyricularia oryzae—PYRIOR)
# Test: microbe, parasite or virus in culture
# Type: cell-based
# Conditions: Pyricularia oryzae, read-out: PYRIOR in vitro Growth Inhibition
row,Compound,inhibition at 25 ppm [%]
1,COc1ccnc(C(=O)Nc2ccc(Oc3ccc(C(F)(F)F)cc3)cc2)c1OC(C)=O [Compound 709],> 80
2,COc1ccnc(C(=O)N[C@H]2COC(=O)[C@H](Cc3ccccc3)[C@@H](OC(=O)C(C)C)[C@H](C)OC2=O)c1OC(=O)O[C@@H]1C[C@H](C)CC[C@H]1C(C)C [Compound 690],< 80
3,COc1ccnc(C(=O)N[C@@H]2C[C@@H](O[Si](C)(C)C(C)(C)C)O[C@@H](C)[C@@H]2OC)c1O [Compound 326],< 80

# System: Rhizoctonia solani (RHIZSO)
# Test: microbe, parasite or virus in culture
# Type: cell-based
# Conditions: Rhizoctonia solani, read-out: RHIZSO in vitro Growth Inhibition
row,Compound,inhibition at 25 ppm [%]
1,COc1ccnc(C(=O)Nc2ccc(Oc3ccc(C(F)(F)F)cc3)cc2)c1OC(C)=O [Compound 709],> 80
2,COc1ccnc(C(=O)N[C@H]2COC(=O)[C@H](Cc3ccccc3)[C@@H](OC(=O)C(C)C)[C@H](C)OC2=O)c1OC(=O)O[C@@H]1C[C@H](C)CC[C@H]1C(C)C [Compound 690],< 80
3,COc1ccnc(C(=O)N[C@@H]2C[C@@H](O[Si](C)(C)C(C)(C)C)O[C@@H](C)[C@@H]2OC)c1O [Compound 326],< 80

# System: Mycosphaerella graminicola (Septoria tritici—SEPTTR)
# Test: In vitro fungal growth inhibition, Mycosphaerella graminicola (SEPTTR)
# Type: cell-based
# Conditions: Zymoseptoria tritici, read-out: SEPTTR in vitro Growth Inhibition
row,Compound,inhibition at 25 ppm [%]
1,COc1ccnc(C(=O)N[C@@H]2C[C@@H](O[Si](C)(C)C(C)(C)C)O[C@@H](C)[C@@H]2OC)c1O [Compound 326],< 80

# Same assay, conditions: Zymoseptoria tritici; 25 ppm in growth medium; read-out: SEPTTR in vitro Growth Inhibition
row,Compound,inhibition at 25 ppm [%]
1,COc1ccnc(C(=O)Nc2ccc(Oc3ccc(C(F)(F)F)cc3)cc2)c1OC(C)=O [Compound 709],> 80
2,COc1ccnc(C(=O)N[C@H]2COC(=O)[C@H](Cc3ccccc3)[C@@H](OC(=O)C(C)C)[C@H](C)OC2=O)c1OC(=O)O[C@@H]1C[C@H](C)CC[C@H]1C(C)C [Compound 690],< 80

# System: Stagonospora nodorum (Leptosphaeria nodorum—LEPTNO)
# Test: In vitro fungal growth inhibition, Stagonospora nodorum (LEPTNO)
# Type: cell-based
# Conditions: Leptosphaeria, read-out: LEPTNO in vitro Growth Inhibition
row,Compound,inhibition at 25 ppm [%]
1,COc1ccnc(C(=O)N[C@@H]2C[C@@H](O[Si](C)(C)C(C)(C)C)O[C@@H](C)[C@@H]2OC)c1O [Compound 326],< 80

# Same assay, conditions: Leptosphaeria; 25 ppm in growth medium; read-out: LEPTNO in vitro Growth Inhibition
row,Compound,inhibition at 25 ppm [%]
1,COc1ccnc(C(=O)Nc2ccc(Oc3ccc(C(F)(F)F)cc3)cc2)c1OC(C)=O [Compound 709],> 80
2,COc1ccnc(C(=O)N[C@H]2COC(=O)[C@H](Cc3ccccc3)[C@@H](OC(=O)C(C)C)[C@H](C)OC2=O)c1OC(=O)O[C@@H]1C[C@H](C)CC[C@H]1C(C)C [Compound 690],< 80

# System: Ustilago maydis (USTIMA)
# Test: microbe, parasite or virus in culture
# Type: cell-based
# Conditions: Mycosarcoma maydis, read-out: USTIMA in vitro Growth Inhibition
row,Compound,inhibition at 25 ppm [%]
1,COc1ccnc(C(=O)Nc2ccc(Oc3ccc(C(F)(F)F)cc3)cc2)c1OC(C)=O [Compound 709],> 80
2,COc1ccnc(C(=O)N[C@H]2COC(=O)[C@H](Cc3ccccc3)[C@@H](OC(=O)C(C)C)[C@H](C)OC2=O)c1OC(=O)O[C@@H]1C[C@H](C)CC[C@H]1C(C)C [Compound 690],< 80
3,COc1ccnc(C(=O)N[C@@H]2C[C@@H](O[Si](C)(C)C(C)(C)C)O[C@@H](C)[C@@H]2OC)c1O [Compound 326],< 80

# System: Phytophthora infestans (PHYTIN)
# Test: microbe, parasite or virus in culture
# Type: cell-based
# Conditions: Phytophthora infestans, read-out: PHYTIN in vitro Growth Inhibition
row,Compound,inhibition at 25 ppm [%]
1,COc1ccnc(C(=O)Nc2ccc(Oc3ccc(C(F)(F)F)cc3)cc2)c1OC(C)=O [Compound 709],< 80
2,COc1ccnc(C(=O)N[C@H]2COC(=O)[C@H](Cc3ccccc3)[C@@H](OC(=O)C(C)C)[C@H](C)OC2=O)c1OC(=O)O[C@@H]1C[C@H](C)CC[C@H]1C(C)C [Compound 690],< 80
3,COc1ccnc(C(=O)N[C@@H]2C[C@@H](O[Si](C)(C)C(C)(C)C)O[C@@H](C)[C@@H]2OC)c1O [Compound 326],< 80

# System: Phytophthora infestans—PHYTIN
# Test: whole plant or invertebrate
# Type: in vivo
# Conditions: Phytophthora, in Solanum lycopersicum, 24 h, read-out: PHYTIN in vivo 1 Day Protectant
row,Compound,pest or weed control at 100 ppm [%]
1,COc1ccnc(C(=O)Nc2ccc(Oc3ccc(C(F)(F)F)cc3)cc2)c1OC(C)=O [Compound 709],< 25
2,COc1ccnc(C(=O)N[C@H]2COC(=O)[C@H](Cc3ccccc3)[C@@H](OC(=O)C(C)C)[C@H](C)OC2=O)c1OC(=O)O[C@@H]1C[C@H](C)CC[C@H]1C(C)C [Compound 690],< 25
3,COc1ccnc(C(=O)N[C@@H]2C[C@@H](O[Si](C)(C)C(C)(C)C)O[C@@H](C)[C@@H]2OC)c1O [Compound 326],< 25

# System: Puccinia recondita—PUCCRT
# Test: Brown Rust of Wheat, in vivo whole plant, 24 Hour Protectant
# Conditions: Puccinia; 100 ppm spray, 24 hour protectant, wheat; control of fungal infection vs untreated plants; read-out: PUCCRT in vivo 1 Day Protectant
row,Compound,pest or weed control at 100 ppm [%]
1,COc1ccnc(C(=O)N[C@@H]2C[C@@H](O[Si](C)(C)C(C)(C)C)O[C@@H](C)[C@@H]2OC)c1O [Compound 326],< 25

# Same assay, conditions: Puccinia; 100 ppm spray, wheat, 24 hour protectant, % control of fungal infection vs untreated plants; read-out: PUCCRT in vivo 1 Day Protectant
row,Compound,pest or weed control at 100 ppm [%]
1,COc1ccnc(C(=O)Nc2ccc(Oc3ccc(C(F)(F)F)cc3)cc2)c1OC(C)=O [Compound 709],< 25
2,COc1ccnc(C(=O)N[C@H]2COC(=O)[C@H](Cc3ccccc3)[C@@H](OC(=O)C(C)C)[C@H](C)OC2=O)c1OC(=O)O[C@@H]1C[C@H](C)CC[C@H]1C(C)C [Compound 690],25 to 74

# System: Erysiphe graminis—ERYSGT
# Test: Powdery Mildew of Wheat, in vivo whole plant, 24 Hour Protectant
# Conditions: 100 ppm spray, wheat, 24 hour protectant, % control of fungal infection vs untreated plants
row,Compound,ERYSGT in vivo 1 Day Protectant
1,COc1ccnc(C(=O)Nc2ccc(Oc3ccc(C(F)(F)F)cc3)cc2)c1OC(C)=O [Compound 709],+ +

# Same assay, conditions: Erysiphe; 100 ppm spray, 24 hour protectant, wheat; control of fungal infection vs untreated plants; read-out: ERYSGT in vivo 1 Day Protectant
row,Compound,pest or weed control at 100 ppm [%]
1,COc1ccnc(C(=O)N[C@@H]2C[C@@H](O[Si](C)(C)C(C)(C)C)O[C@@H](C)[C@@H]2OC)c1O [Compound 326],< 25

# Same assay, conditions: Erysiphe; 100 ppm spray, wheat, 24 hour protectant, % control of fungal infection vs untreated plants; read-out: ERYSGT in vivo 1 Day Protectant
row,Compound,pest or weed control at 100 ppm [%]
1,COc1ccnc(C(=O)N[C@H]2COC(=O)[C@H](Cc3ccccc3)[C@@H](OC(=O)C(C)C)[C@H](C)OC2=O)c1OC(=O)O[C@@H]1C[C@H](C)CC[C@H]1C(C)C [Compound 690],< 25

# System: Septoria tritici—SEPTTR
# Test: Leaf Blotch of Wheat, in vivo whole plant, 24 Hour Protectant
# Conditions: 100 ppm spray, 24 hour protectant, wheat; control of fungal infection vs untreated plants
row,Compound,SEPTTR in vivo 1 Day Protectant
1,COc1ccnc(C(=O)N[C@@H]2C[C@@H](O[Si](C)(C)C(C)(C)C)O[C@@H](C)[C@@H]2OC)c1O [Compound 326],+ +

# Same assay, conditions: 100 ppm spray, wheat, 24 hour protectant, % control of fungal infection vs untreated plants
row,Compound,SEPTTR in vivo 1 Day Protectant
1,COc1ccnc(C(=O)N[C@H]2COC(=O)[C@H](Cc3ccccc3)[C@@H](OC(=O)C(C)C)[C@H](C)OC2=O)c1OC(=O)O[C@@H]1C[C@H](C)CC[C@H]1C(C)C [Compound 690],+ +

# System: Leptosphaeria nodorum—LEPTNO
# Test: Glume Blotch of Wheat, in vivo whole plant, 24 Hour Protectant
# Conditions: 100 ppm spray, wheat, 24 hour protectant, % control of fungal infection vs untreated plants
row,Compound,LEPTNO in vivo 1 Day Protectant
1,COc1ccnc(C(=O)Nc2ccc(Oc3ccc(C(F)(F)F)cc3)cc2)c1OC(C)=O [Compound 709],+ +

# Same assay, conditions: Leptosphaeria; 100 ppm spray, 24 hour protectant, wheat; control of fungal infection vs untreated plants; read-out: LEPTNO in vivo 1 Day Protectant
row,Compound,pest or weed control at 100 ppm [%]
1,COc1ccnc(C(=O)N[C@@H]2C[C@@H](O[Si](C)(C)C(C)(C)C)O[C@@H](C)[C@@H]2OC)c1O [Compound 326],25 to 74

# Same assay, conditions: Leptosphaeria; 100 ppm spray, wheat, 24 hour protectant, % control of fungal infection vs untreated plants; read-out: LEPTNO in vivo 1 Day Protectant
row,Compound,pest or weed control at 100 ppm [%]
1,COc1ccnc(C(=O)N[C@H]2COC(=O)[C@H](Cc3ccccc3)[C@@H](OC(=O)C(C)C)[C@H](C)OC2=O)c1OC(=O)O[C@@H]1C[C@H](C)CC[C@H]1C(C)C [Compound 690],25 to 74

# System: not given
# Test: not given
# Conditions: not given
row,Compound,melting point [°C]
1,COc1ccnc(C(=O)Nc2ccc(Oc3ccc(C(F)(F)F)cc3)cc2)c1OC(C)=O [Compound 709],165 to 166
